System: Candida albicans 73/025
Experiment: Minimum inhibitory concentration test of cysteamine (Lynovex, NM001), CLSI M27-A3
Type: cell-based
Settings: vulvovaginal isolate 73/025; RPMI-1640, 35° C., read at 24 h and 48 h
Procedure: The aim of the experiment was to determine the MIC of Lynovex (NM001) against vulvovaginal isolate Candida albicans 73/025. Plates were prepared which contain a serial doubling dilution of Lynovex (NM001) at 2× final concentration. The cultures were then prepared in 2×RPMI-1640, according to the CLSI M27-A3 protocol, and mixed in equal volumes in the plate resulting in 1×RPMI-1640, the concentration of compound mentioned below, and the CLSI standard inoculum for C. albicans. These were incubated at 35° C. and read at 24 h and 48 h on the BioTek plate reader.
• 1. Culture of Candida albicans grown overnight at 30° C. • 2. Culture removed from incubator. Add 2 ml sterile dH2O to the overnight culture and wash the cells from the surface of the agar. Cells placed in fresh bijou tube. • 3. Serial doubling dilution carried out and measured against same volume of MacFarland Standard • a. 100 μl culture added to well A1 of microtitre plate. • b. 100 μl sterile dH2O added to wells A2-A11. • c. 100 μl culture added to well A2 of microtitre plate and mixed well resulting in a 1 in 2 dilution. • d. 100 μl taken from A2 and added to A3 on plate and mixed well resulting in a 1 in 4 dilution. • e. This is continued to A11 where 100 μl is removed and discarded. • f. […] Plate read at OD530 on BioTek • h. […]
• 1. […] The plate is read in the BioTek at OD530. • 3. […]

SMILES: NCCS [NM001, cysteamine]
- growth of Candida albicans: inhibited the growth

— US20160102052A1, “Use of Cysteamine in Treating Infections caused by Yeasts/Moulds” (priority 2014, published 2016)
